Here are results for 3 compounds from paper PMC5526999, “Mass Spectrometry Imaging proves differential absorption profiles of well-characterised permeability markers along the crypt-villus axis” (Scientific Reports, 2017).

The nature of data set [1]: LC-ESI MS/MS quantification of drug concentration in intestinal tissue homogenates after oral cassette administration. The class given is in vivo, rat. As for the experimental part: Male rats (Han-Wistar, ~ 100 days old, body-weight ~ 300 g) were used in this study. […] All experiments were performed in accordance with relevant guidelines and regulations, the animal work was approved by the Local Animal Research Ethics Board of Gothenburg, Sweden. […] Four animals were dosed in this study, and non-dosed tissue was prepared from control rats in parallel. […] Therefore, in the present study we focussed on the concept of “vertical” absorption gradients along the crypt-villous axis, which has not been studied earlier. The intestine was removed under anaesthesia using isoflurane (Forene, Abbott, USA), to ensure full viability and oxygenation of the tissue until the moment of excision. Animals were sacrificed without regaining consciousness by aortal incision and an overdose of isoflurane. Immediately after excision, intestines were divided into 10 cm long segments and each segment was carefully washed with Krebs-Bicarbonate-Ringer buffer (KBR) from the stomach to the large intestine (additional information in Supplementary Data). The first 5–10 mm of each segment were cut, quickly weighed and collected in homogenization tubes for subsequent extraction and LCMS analysis of total drug concentration in the gut-wall. The next 8–9 cm of each segment were prepared for MALDI-MSI analysis. […] The CMC gels quickly on wet-ice/isopropanol and provides tissue support during the subsequent cryosectioning. All samples were stored at −20 °C until cryosectioning. […] The supernatants were transferred to fresh vials and centrifuged again under the same conditions. […] The samples were analysed by LC-MS/MS and quantified against a calibration standard curve. The LC-MS/MS analysis was performed using an electrospray ionization tandem quadrupole mass spectrometer (Quattro Premier, Waters, USA) in positive ionization mode. The mass spectrometer was integrated with an ultra-performance liquid chromatography (UPLC) system (Acquity, Waters) assisted with a column manager. Chromatography was performed on a column (Acquity UPLC HSS T3, 2.1 × 50 mm) at 40 °C. The flow rate was 1000 µL/min and the injection volume was 5 µL. The mobile phases consisted of A: water, 0.2% (v/v) formic acid and 2% (v/v) acetonitrile and B: acetonitrile, 0.2% (v/v) formic acid. […] Data was acquired using multiple reaction monitoring (MRM) and mass transitions determined by QuanOptimize (Waters). Instrument control and data processing was performed using MassLynx 4.1 software including QuanLynx (Waters).

A short description of data set [2]: MALDI-MSI of drug distribution in rat small intestine after oral cassette administration. It counts as in vivo. The following applies: oral 10 µmol/kg. The procedure: Male rats (Han-Wistar, ~ 100 days old, body-weight ~ 300 g) were used in this study. […] All experiments were performed in accordance with relevant guidelines and regulations, the animal work was approved by the Local Animal Research Ethics Board of Gothenburg, Sweden. […] Four animals were dosed in this study, and non-dosed tissue was prepared from control rats in parallel. […] Therefore, in the present study we focussed on the concept of “vertical” absorption gradients along the crypt-villous axis, which has not been studied earlier. The intestine was removed under anaesthesia using isoflurane (Forene, Abbott, USA), to ensure full viability and oxygenation of the tissue until the moment of excision. Animals were sacrificed without regaining consciousness by aortal incision and an overdose of isoflurane. Immediately after excision, intestines were divided into 10 cm long segments and each segment was carefully washed with Krebs-Bicarbonate-Ringer buffer (KBR) from the stomach to the large intestine (additional information in Supplementary Data). The first 5–10 mm of each segment were cut, quickly weighed and collected in homogenization tubes for subsequent extraction and LCMS analysis of total drug concentration in the gut-wall. The next 8–9 cm of each segment were prepared for MALDI-MSI analysis. […] The CMC gels quickly on wet-ice/isopropanol and provides tissue support during the subsequent cryosectioning. All samples were stored at −20 °C until cryosectioning. The embedded samples were attached and positioned with OCT-compound (TissueTek) to the specimen holder of a microtome (Cryo-Star HM 560 M, Microm International, Germany) set to −20 °C. The samples were sectioned at 10 µm thickness. […] A control tissue section from the same intestinal region from non-dosed animal was placed on each slide to enable a direct comparison to be made. All slides were kept at −80 °C until MALDI-MSI analysis. Tissue sections were also stained using haematoxylin and eosin (H&E) following a standard histological protocol for fresh frozen tissues. […] Additional optimization was performed using a robotic matrix sprayer (TM-Sprayer, HTX Technologies, USA) in order to minimize delocalization and crystal size, while still maintaining adequate extraction of compound from the tissue. […] An optical image (9600 dpi) of the glass slide was acquired using a flatbed scanner (Epson perfection V500). The tissue sections were coated with DHB (35 mg/ml, 70% ACN, 0.2% TFA) using a robotic sprayer with a flow of rate 70 µl/min, stage speed of 1100 mm/min, track spacing of 2 mm (crisscross pattern), nitrogen pressure 6 psi, and spray nozzle temperature set to 95 °C for 8 passes. […] FlexImaging 4.0 (Bruker Daltonics) and msIQuant 2.0 was used for data analysis, normalization (to total ion count) and ion image extraction.

Details of data set [3]: method as in PMID 1673839, PMID 11259831, PMID 9523990. The following applies: ref [1], [15] and [48]; cited from earlier work.
Data set [4] relates to Caco-2. Set-up: method as in PMID 1673839, PMID 11259831, PMID 9523990. Particulars: ref [1], [15] and [48]; cited from earlier work.
For data set [5] the following is noted: no reference given; cited from earlier work.
The mark [6] stands for this setting: oral 10 µmol/kg, 20 min post administration.
[7] abbreviates: 20 min, 30 cm along the intestine, line graph along crypt-villus axis.

As to `CC(C)NCC(O)COc1ccc(CC(N)=O)cc1` (stereo not drawn) [Atenolol], the “distance from the pyloro-duodenal junction of highest concentration (LC-ESI MS/MS homogenates)” value in data set [1] (oral 1 µmol/kg, 20 min post administration) is 50 cm. Further, the “intestinal sample with highest concentration” value in data set [1] (setting [6]) is reported as 20 cm. Moreover, the “intensity profile from villus tip to base (line graph)” value in data set [2] (20 min, 30 cm along the intestine) is “maintain similar intensities all the way from the villus tip to the basal regions”. Moreover, in data set [2] (20 min, profile perpendicular to the villus axis), the “localisation across and within the villi (transverse profile)” value is given as “localized primarily between the villi”. The “Ion Class” value in data set [3] was “Base”.
Regarding `COCCc1ccc(OCC(O)CNC(C)C)cc1` (stereo not drawn) [Metoprolol], in data set [4], the “Caco-2 Papp” value was 27.0 1E-6.cm/s. Besides, the “lower tissue concentration at 45 min compared to 20 min (LC-MS/MS)” value in data set [1] (male, Han-Wistar, rat, in vivo, po) was “about 3 fold”. Further, the “Tmax in the rat” value in data set [5] is under 20 min. Moreover, the “distance over which the gradient from villus tip towards crypt region runs” value in data set [2] (setting [7]) turned out to be 200 µm.
As to `CC(C)NCC(O)COc1cccc2ccccc12` (stereo not drawn) [Propranolol], the “Caco-2 Papp” value in data set [4] is listed as 41.9 1E-6.cm/s. Further, the “lower tissue concentration at 45 min compared to 20 min (LC-MS/MS)” value in data set [1] (oral 10 µmol/kg, 40 cm sample) was “about 3 fold”. Besides, the “intestinal sample with highest concentration” value in data set [1] (setting [6]) was 30 cm. Moreover, the “lower level at 45 min compared to 20 min (MSI)” value in data set [2] (40 cm sample) is “about 3 fold”. Moreover, in data set [2] (setting [7]), the “distance from the villus tips of significant reduction in abundance” value is 400–500 µm. In data set [3], the “Ion Class” value is “Base”.
